# Laboratory results reported in patent US6737383B1, “Herbicidal oxadiazolidines” (priority 1999, dated 2004).
# Legend:
# bedstraw = test: Test B pre/postemergence bedstraw; format: in vivo, Galium aparine
# How it was run: (§1)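 Herbicidal effect was estimated by eye on a ten-point control scale after plants spent twelve to sixteen days in a greenhouse following soil or foliar treatment. Foliar sprays targeted plants at one to four leaves; all doses were formulated in a non-phytotoxic solvent with surfactant.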
# blackgrass = test: Test B pre/postemergence blackgrass; format: in vivo, Alopecurus myosuroides
# How it was run: as §1
# surinam grass = test: Test B pre/postemergence surinam grass; format: in vivo, Brachiaria decumbens
# How it was run: as §1
# cocklebur = test: Test B pre/postemergence cocklebur; format: in vivo, Xanthium strumarium
# How it was run: as §1
# corn = test: Test B pre/postemergence corn; format: in vivo, Zea mays
# How it was run: as §1
# crabgrass = test: Test B pre/postemergence crabgrass; format: in vivo, Digitaria sanguinalis
# How it was run: as §1
# giant foxtail = test: Test B pre/postemergence giant foxtail; format: in vivo, Setaria faberii
# How it was run: as §1
# morningglory = test: Test B pre/postemergence morningglory; format: in vivo, Ipomoea hederacea
# How it was run: as §1
# pigweed = test: Test B pre/postemergence pigweed; format: in vivo, Amaranthus retroflexus
# How it was run: as §1
# rape = test: Test B pre/postemergence rape; format: in vivo, Brassica napus
# How it was run: as §1
# soybean = test: Test B pre/postemergence soybean; format: in vivo, Glycine max
# How it was run: as §1
# sugar beet = test: Test B pre/postemergence sugar beet; format: in vivo, Beta vulgaris
# How it was run: as §1
# velvetleaf = test: Test B pre/postemergence velvetleaf; format: in vivo, Abutilon theophrasti
# How it was run: as §1
# wheat = test: Test B pre/postemergence wheat; format: in vivo, Triticum aestivum
# How it was run: as §1
# wild oat = test: Test B pre/postemergence wild oat; format: in vivo, Avena fatua
# How it was run: as §1
# purple nutsedge = test: Test B pre/postemergence purple nutsedge; format: in vivo, Cyperus rotundus
# How it was run: as §1
# rice = test: Test B flood test rice; format: in vivo, Oryza sativa
# How it was run: (§2)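 Each value is a visual injury score relative to controls, with 10 meaning complete control and 0 no effect. Evaluation took place twelve to sixteen days after the 2-leaf-stage plants were treated and kept in the greenhouse.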
# smallflower flatsedge = test: Test B flood test smallflower flatsedge; format: in vivo, Cyperus difformis
# How it was run: as §2
# duck salad = test: Test B flood test duck salad; format: in vivo, Heteranthera limosa
# How it was run: as §2
# bamyardgrass = test: Test B flood test barnyardgrass; format: in vivo, Echinochloa crus-galli
# How it was run: as §2
# [1] = Postemergence, Rate 250 g/ha, scale 0 to 10, 0 is no effect, 10 is complete control
# [2] = Preemergence, Rate 62 g/ha, scale 0 to 10 (0 no effect, 10 complete control)
# [3] = Preemergence, Rate 250 g/ha, scale of 0 to 10 where 0 is no effect and 10 is complete control
# [4] = Preemergence, Rate 500 g/ha, scale 0 to 10, 0 is no effect, 10 is complete control
# [5] = Postemergence, Rate 500 g/ha, scale of 0 to 10 where 0 is no effect and 10 is complete control
# [6] = Preemergence, Rate 125 g/ha, scale of 0 to 10 where 0 is no effect and 10 is complete control
# [7] = Rate 62 g/ha, Postemergence, scale of 0 to 10 where 0 is no effect and 10 is complete control
# [8] = Postemergence, Rate 125 g/ha, scale 0 to 10, 0 is no effect, 10 is complete control
# [9] = Preemergence, Rate 250 g/ha, scale 0 to 10, 0 is no effect, 10 is complete control
# [10] = Rate 62 g/ha, flood test species, Pre-emergence, visual evaluation after twelve to sixteen days
# [11] = Rate 125 g/ha, under heading Pre-emergence, flood test species, visual evaluation after twelve to sixteen days
# [12] = Rate 250 g/ha, Pre-emergence, flood-test species, scale 0 to 10, 0 is no effect, 10 is complete control
structure (smiles),measurement,setting,value
CC(C)N(C(=O)n1oc(=O)n(C(C)C2CC2)c1=O)c1ccc(F)cc1 (stereo not drawn) [Compound 404],"Plant response rating, Bedstraw",bedstraw; [1],8
same,"Plant response rating, Bedstraw",bedstraw; [2],0
same,Bedstraw plant response rating,bedstraw; [3],10
same,Bedstraw plant response rating,bedstraw; [4],10
same,"Plant response rating, Blackgrass",blackgrass; [1],10
same,Blackgrass plant response rating,blackgrass; [5],10
same,"Plant response rating, Blackgrass",blackgrass; [2],6
same,"Plant response rating, Blackgrass",blackgrass; [6],7
same,Blackgrass plant response rating,blackgrass; [3],9
same,Blackgrass plant response rating,blackgrass; [4],10
same,Blackgrass plant response rating,blackgrass; [7],5
same,"Plant response rating, B. signalgrass",surinam grass; [8],2
same,B. signalgrass plant response rating,surinam grass; [5],6
same,"Plant response rating, B. signalgrass",surinam grass; [2],2
same,"Plant response rating, B. signalgrass",surinam grass; [6],4
same,B. signalgrass plant response rating,surinam grass; [3],8
same,B. signalgrass plant response rating,"surinam grass; Preemergence, Rate 500 g/ha, scale of 0 to 10 where 0 is no effect and 10 is complete control",10
same,B. signalgrass plant response rating,surinam grass; [7],2
same,"Plant response rating, Cocklebur",cocklebur; [8],2
same,"Plant response rating, Cocklebur",cocklebur; [1],2
same,Cocklebur plant response rating,cocklebur; [5],3
same,"Plant response rating, Cocklebur",cocklebur; [2],0
same,"Plant response rating, Cocklebur",cocklebur; [6],0
same,Cocklebur plant response rating,cocklebur; [9],0
same,Cocklebur plant response rating,cocklebur; [4],0
same,Cocklebur plant response rating,cocklebur; [7],0
same,"Plant response rating, Corn",corn; [8],0
same,"Plant response rating, Corn",corn; [1],0
same,Corn plant response rating,corn; [5],1
same,"Plant response rating, Corn",corn; [2],0
same,"Plant response rating, Corn",corn; [6],2
same,Corn plant response rating,corn; [9],2
same,Corn plant response rating,corn; [4],6
same,Corn plant response rating,corn; [7],0
same,"Plant response rating, Crabgrass",crabgrass; [8],3
same,"Plant response rating, Crabgrass",crabgrass; [1],5
same,Crabgrass plant response rating,crabgrass; [5],8
same,"Plant response rating, Crabgrass",crabgrass; [2],10
same,"Plant response rating, Crabgrass",crabgrass; [6],10
same,Crabgrass plant response rating,crabgrass; [9],10
same,Crabgrass plant response rating,crabgrass; [4],10
same,Crabgrass plant response rating,crabgrass; [7],0
same,"Plant response rating, Giant foxtail",giant foxtail; [8],9
same,"Plant response rating, Giant foxtail",giant foxtail; [1],9
same,Giant foxtail plant response rating,giant foxtail; [5],9
same,"Plant response rating, Giant foxtail",giant foxtail; [2],10
same,"Plant response rating, Giant foxtail",giant foxtail; [6],10
same,Giant foxtail plant response rating,giant foxtail; [9],10
same,Giant foxtail plant response rating,giant foxtail; [4],10
same,Giant foxtail plant response rating,giant foxtail; [7],5
same,"Plant response rating, Morningglory",morningglory; [1],7
same,Morningglory plant response rating,morningglory; [5],10
same,"Plant response rating, Morningglory",morningglory; [2],0
same,"Plant response rating, Morningglory",morningglory; [6],2
same,Morningglory plant response rating,morningglory; [9],4
same,Morningglory plant response rating,morningglory; [4],5
same,"Plant response rating, Redroot pigweed",pigweed; [1],5
same,Redroot pigweed plant response rating,pigweed; [5],7
same,"Plant response rating, Redroot pigweed",pigweed; [2],2
same,"Plant response rating, Redroot pigweed",pigweed; [6],6
same,Redroot pigweed plant response rating,pigweed; [9],10
same,Redroot pigweed plant response rating,pigweed; [4],10
same,"Plant response rating, Rape",rape; [1],4
same,Rape plant response rating,rape; [5],8
same,"Plant response rating, Rape",rape; [2],1
same,"Plant response rating, Rape",rape; [6],4
same,Rape plant response rating,rape; [9],7
same,Rape plant response rating,rape; [4],8
same,"Plant response rating, Soybean",soybean; [1],6
same,Soybean plant response rating,soybean; [5],7
same,"Plant response rating, Soybean",soybean; [2],0
same,"Plant response rating, Soybean",soybean; [6],0
same,Soybean plant response rating,soybean; [9],0
same,Soybean plant response rating,soybean; [4],3
same,"Plant response rating, Sugarbeets",sugar beet; [1],1
same,Sugarbeets plant response rating,sugar beet; [5],4
same,"Plant response rating, Sugarbeets",sugar beet; [2],0
same,"Plant response rating, Sugarbeets",sugar beet; [6],3
same,Sugarbeets plant response rating,sugar beet; [9],6
same,Sugarbeets plant response rating,sugar beet; [4],8
same,"Plant response rating, Velvetleaf",velvetleaf; [1],0
same,Velvetleaf plant response rating,velvetleaf; [5],6
same,"Plant response rating, Velvetleaf",velvetleaf; [2],0
same,"Plant response rating, Velvetleaf",velvetleaf; [6],1
same,Velvetleaf plant response rating,velvetleaf; [9],5
same,Velvetleaf plant response rating,velvetleaf; [4],7
same,Wheat plant response rating,wheat; [5],3
same,"Plant response rating, Wheat",wheat; [2],0
same,"Plant response rating, Wheat",wheat; [6],2
same,Wheat plant response rating,wheat; [9],4
same,Wheat plant response rating,wheat; [4],5
same,Wild oats plant response rating,wild oat; [5],8
same,"Plant response rating, Wild oats",wild oat; [2],3
same,"Plant response rating, Wild oats",wild oat; [6],8
same,Wild oats plant response rating,wild oat; [9],10
same,Wild oats plant response rating,wild oat; [4],10
same,"Plant response rating, Nutsedge",purple nutsedge; [1],0
same,Nutsedge plant response rating,purple nutsedge; [5],0
same,"Plant response rating, Nutsedge",purple nutsedge; [2],0
same,"Plant response rating, Nutsedge",purple nutsedge; [6],0
same,Nutsedge plant response rating,purple nutsedge; [9],0
same,Nutsedge plant response rating,purple nutsedge; [4],0
same,"Plant response rating, Rice (0 to 10 scale, 0 is no effect, 10 is complete control)",rice; [10],0
same,"Rice plant response rating (0 to 10 scale, 0 is no effect, 10 is complete control)",rice; [11],0
same,Rice plant response rating,rice; [12],7
same,"Plant response rating, S. Flatsedge (0 to 10 scale, 0 is no effect, 10 is complete control)",smallflower flatsedge; [10],0
same,"S. Flatsedge plant response rating (0 to 10 scale, 0 is no effect, 10 is complete control)",smallflower flatsedge; [11],0
same,S. Flatsedge plant response rating,smallflower flatsedge; [12],8
same,"Plant response rating, Ducksalad (0 to 10 scale, 0 is no effect, 10 is complete control)",duck salad; [10],0
same,"Ducksalad plant response rating (0 to 10 scale, 0 is no effect, 10 is complete control)",duck salad; [11],1
same,Ducksalad plant response rating,duck salad; [12],5
same,"Plant response rating, Barnyardgrass (0 to 10 scale, 0 is no effect, 10 is complete control)",bamyardgrass; [10],4
same,"Barnyardgrass plant response rating (0 to 10 scale, 0 is no effect, 10 is complete control)",bamyardgrass; [11],9
same,Barnyardgrass plant response rating,bamyardgrass; [12],9
